What follows are molecules tested against T1, CDK2/Cyclin E complex (Homo sapiens, UniProt P24941) (assay: CDK2/Cyclin E fluorescence-based microfluidic mobility shift assay (CDK2 Biochemical Caliper Assay)). Conditions: read-out: Biochemical CDK2/CyclinE Caliper IC50.
T1 construct: purchased Eurofins 14-475
In short: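 Wild-type CDK2/Cyclin E was preincubated with compound and ATP for 30 min at RT before the 5-FAM-QSPKKG peptide was added. Final concentrations were 0.1 nM enzyme, 2000 uM ATP, 1.5 uM peptide and 1% DMSO. After 20 hr at RT and EDTA stop, substrate conversion was read by microfluidic mobility shift over an 11-point, 3-fold dilution series.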
For `Cc1ncccc1O[C@H]1CC[C@@H](c2cc(Nc3ccc4c(c3)C(C)(C)NC4=O)n[nH]2)C1` (single isomer, unassigned) [Example 547], the IC50 was no more than 100 nM.
In the case of `CC1(NC(=O)O[C@H]2CO[C@@H](c3cc(Nc4nccc5nc(C(F)(F)F)cn45)n[nH]3)C2)CC1` [Example 901], the IC50 is reported as no more than 100 nM.
Molecule `CC1(NC(=O)O[C@H]2CO[C@@H](c3cc(Nc4ccc5c(n4)C(C)(C)NC5=O)n[nH]3)C2)CC1` [Example 723] has an IC50 of no more than 100 nM.
Work on `COCc1cc2c(Nc3cc([C@H]4CC[C@@H](OC(=O)NC(C)C)C4)[nH]n3)nccn2n1` (single isomer, unassigned) [Example 480] yielded an IC50 of no more than 100 nM.
In the case of `Cc1cc(CC(=O)Nc2cc(N3CC[C@H]3COC(=O)NC3(C)CC3)[nH]n2)on1` [Example 52], the IC50 is reported as 1000 to 100000 nM.
`COCc1cc(C(=O)Nc2cc([C@H]3C[C@@H](COc4cn[nH]c4C(C)(C)C)C3)[nH]n2)n(C)n1` [Example 622] gave an IC50 of no more than 100 nM.
`CC(=O)Nc1cc([C@H]2CC[C@@H](Oc3nnccc3C(C)C)C2)[nH]n1` (single isomer, unassigned) [Example 427] gave an IC50 of no more than 100 nM.
`Cc1cc(CC(=O)Nc2cc([C@H]3CC[C@@H](Cc4cn[nH]c4C(C)C)C3)[nH]n2)on1` (single isomer, unassigned) [Example 409] gave an IC50 of 100 to 250 nM.
With `Cn1nc(COC(F)(F)F)cc1C(=O)Nc1cc([C@@H]2C[C@H](OC(=O)NC34CC(C3)C4)CO2)[nH]n1` [Example 776] the IC50 was no more than 100 nM.
`c1cn2ncc(Nc3cc(C4CCCC4)[nH]n3)cc2n1` [Example 793] showed an IC50 of 1000 to 100000 nM.
With `COCc1cc(C(=O)Nc2cc([C@H]3CC[C@@H](Oc4nccnc4C(C)C)C3)[nH]n2)n(C)n1` (single isomer, unassigned) [Example 508] the IC50 was no more than 100 nM.
For `COCc1cc(C(=O)Nc2cc([C@H]3C[C@H](COc4nnccc4C(C)C)C3)[nH]n2)n(C)n1` [Example 430], the IC50 was 1000 to 100000 nM.
`COC(=O)c1cnc(C)cc1Nc1cc(C2CCCC2)[nH]n1` [Example 803] showed an IC50 of 1000 to 100000 nM.
`COCc1cc(C(=O)Nc2cc([C@H]3CC[C@@H](Oc4ccc(C)nc4)C3)[nH]n2)n(C)n1` (single isomer, unassigned) [Example 395] gave an IC50 of 1000 to 100000 nM.
In the case of `COCc1nc2ccnc(Nc3cc([C@@H]4CC[C@H](OC(=O)NC(C)C)C4)[nH]n3)c2s1` (single isomer, unassigned) [Example 399], the IC50 is reported as no more than 100 nM.
In the case of `Cc1cc(CC(=O)Nc2cc([C@H]3CC[C@@H](COC(=O)NC(C)C)CC3)[nH]n2)on1` [Example 135], the IC50 is reported as 1000 to 100000 nM.
`CNC(=O)O[C@@H]1CC[C@H](c2cc(Nc3ccc4c(n3)C(C)(C)NC4=O)n[nH]2)C1` (single isomer, unassigned) [Example 529] showed an IC50 of no more than 100 nM.
In the case of `COCc1cc(C(=O)Nc2cc([C@H]3C[C@@H](COC(=O)NC(C)C)C3)[nH]n2)n(C)n1` [Example 460], the IC50 is reported as no more than 100 nM.
`COCc1cc(C(=O)Nc2cc([C@@H]3CC[C@@](C)(CC(=O)NC(C)C)C3)[nH]n2)n(C)n1` (single isomer, unassigned) [Example 447] was tested, and the IC50 was 1000 to 100000 nM.
With `COCc1cc(C(=O)Nc2cc([C@H]3CC[C@@H](Oc4nnccc4C(C)C)C3)[nH]n2)n(C)n1` (single isomer, unassigned) [Example 410] the IC50 was no more than 100 nM.
`COCc1cc(C(=O)Nc2ncc([C@H]3C[C@@H](COC(=O)NC(C)C)C3)s2)n(C)n1` [Example 670] was tested, and the IC50 was no more than 100 nM.
Work on `Cc1cc(CC(=O)Nc2cc([C@@H]3CC[C@H](Cc4nncn4C(C)C)C3)[nH]n2)on1` (single isomer, unassigned) [Example 371] yielded an IC50 of 1000 to 100000 nM.
`COCc1cc(C(=O)Nc2cc([C@@H]3C[C@H](Oc4nnccc4C(C)C)CO3)[nH]n2)n(C)n1` [Example 459] showed an IC50 of no more than 100 nM.
In the case of `COCc1nc2ccnc(Nc3cc([C@H]4C[C@@H](OC(=O)NC(C)C)CO4)[nH]n3)c2s1` (single isomer, unassigned) [Example 467], the IC50 is reported as 100 to 250 nM.
`Cc1ncccc1O[C@@H]1CO[C@H](c2cc(Nc3nccn4nccc34)n[nH]2)C1` [Example 521] gave an IC50 of 1000 to 100000 nM.
`Cc1ncccc1OC[C@H]1C[C@@H](c2cc(Nc3nccn4nccc34)n[nH]2)C1` [Example 513] showed an IC50 of 100 to 250 nM.
For `COCc1cc2c(Nc3cc([C@@H]4C[C@H](OC(=O)NC(C)(C)C)CO4)[nH]n3)nccn2n1` (single isomer, unassigned) [Example 618], the IC50 was no more than 100 nM.
In the case of `COCc1cc2c(Nc3cc([C@H]4C[C@@H](OC(=O)NC56CCC(CC5)OC6)CO4)[nH]n3)nccn2n1` [Example 716], the IC50 is reported as no more than 100 nM.
In the case of `CC1(NC(=O)O[C@H]2CO[C@@H](c3cc(Nc4cc5nccnc5cn4)n[nH]3)C2)CC1` [Example 760], the IC50 is reported as 250 to 1000 nM.
With `Cc1nc(Nc2cc(C3CCCC3)[nH]n2)cc2nncn12` [Example 797] the IC50 was 1000 to 100000 nM.
In the case of `Clc1cccc2nc(Nc3cc(C4CCCC4)[nH]n3)cnc12` [Example 801], the IC50 is reported as 1000 to 100000 nM.
With `COCc1cc(C(=O)Nc2cc([C@H]3CC[C@@H](Oc4nccnc4C(F)F)C3)[nH]n2)n(C)n1` (single isomer, unassigned) [Example 502] the IC50 was 1000 to 100000 nM.
Work on `COc1cc(Nc2cc(C3CCCC3)[nH]n2)nc2sccc12` [Example 810] yielded an IC50 of 1000 to 100000 nM.
`COCc1cc2c(Nc3cc([C@H]4C[C@@H](OC(=O)C5CCC5(C)C)CO4)[nH]n3)nccn2n1` (stereo partly shown) [Example 726] gave an IC50 of no more than 100 nM.
For `CC(C)c1[nH]ncc1O[C@H]1CO[C@@H](c2cc(Nc3nccn4nccc34)n[nH]2)C1` (single isomer, unassigned) [Example 585], the IC50 was 1000 to 100000 nM.
In the case of `COCc1cc2c(Nc3cc([C@H]4C[C@@H](OC(=O)NC5(C(F)(F)F)CC5)CO4)[nH]n3)nccn2n1` [Example 640], the IC50 is reported as no more than 100 nM.
In the case of `c1cc2nc(Nc3cc(C4CCCC4)[nH]n3)ccn2n1` [Example 877], the IC50 is reported as 250 to 1000 nM.
Work on `COCc1cc2c(Nc3cc([C@@H]4C[C@H](Oc5nncn5C(C)(C)C)CO4)[nH]n3)nccn2n1` [Example 742] yielded an IC50 of no more than 100 nM.
`COCc1cc(C(=O)Nc2cc([C@H]3CC[C@@H](c4cc(C(C)C)ncn4)C3)[nH]n2)n(C)n1` (single isomer, unassigned) [Example 601] showed an IC50 of 1000 to 100000 nM.
Work on `COCc1cc(C(=O)Nc2cc([C@H]3C[C@@](C)(CC(=O)NC(C)C)C3)[nH]n2)n(C)n1` [Example 532] yielded an IC50 of 1000 to 100000 nM.
Work on `COCc1cc2c(Nc3cc([C@H]4C[C@@H](OC(=O)NC(C)(C)C(F)(F)F)CO4)[nH]n3)nccn2n1` [Example 641] yielded an IC50 of no more than 100 nM.
`Cn1cc2ccnc(Nc3cc([C@H]4C[C@@H](OC(=O)NC5(C)CC5)CO4)[nH]n3)c2n1` [Example 734] gave an IC50 of 1000 to 100000 nM.
With `CC(C)NC(=O)O[C@@H]1CC[C@H](c2cc(NC(=O)c3cc(CN4CCC(F)(F)C4)nn3C)n[nH]2)C1` [Example 657] the IC50 was no more than 100 nM.
`CC(C)NC(=O)O[C@@H]1CC[C@H](c2cc(Nc3nccc4ncsc34)n[nH]2)C1` (single isomer, unassigned) [Example 121] was tested, and the IC50 was no more than 100 nM.
Molecule `COCc1cc2c(Nc3cc([C@H]4C[C@@H](OC(=O)NC5(C)CC5)CO4)[nH]n3)nccn2n1` [Example 619] has an IC50 of no more than 100 nM.
Work on `CC1(NC(=O)O[C@H]2CO[C@@H](c3cc(Nc4nccn5nc(C(F)F)cc45)n[nH]3)C2)CC1` [Example 769] yielded an IC50 of no more than 100 nM.
`CC(C)NC(=O)O[C@H]1CC[C@@H](c2cc(NC(=O)CN(C)c3ncnc4nc[nH]c34)[nH]n2)C1` (single isomer, unassigned) [Example 375] gave an IC50 of no more than 100 nM.
`Cn1nc(COC(F)(F)F)cc1C(=O)Nc1cc([C@H]2C[C@@H](OC(=O)NC3(C#N)CC3)CO2)[nH]n1` [Example 788] showed an IC50 of no more than 100 nM.
For `CO[C@@H](C)c1cc2c(Nc3cc([C@H]4C[C@@H](OC(=O)NC5(C)CC5)CO4)[nH]n3)nccn2n1` (single isomer, unassigned) [Example 891], the IC50 was no more than 100 nM.
For `C[C@@H](NC(=O)O[C@@H]1CO[C@H](c2cc(NC(=O)c3cc(OCC(F)(F)F)nn3C)n[nH]2)C1)C1CC1` [Example 910], the IC50 was no more than 100 nM.
`Cc1ncccc1O[C@H]1CC[C@@H](c2cc(Nc3nccn4nccc34)n[nH]2)C1` (single isomer, unassigned) [Example 485] gave an IC50 of no more than 100 nM.
`COCc1cc(C(=O)Nc2cc([C@H]3C[C@@H](OC)[C@H](OC(=O)NC(C)C)C3)[nH]n2)n(C)n1` (single isomer, unassigned) [Example 570] was tested, and the IC50 was 1000 to 100000 nM.
For `CN1CCc2c(ccnc2Nc2cc([C@H]3C[C@@H](OC(=O)NC4(C)CC4)CO3)[nH]n2)C1` [Example 758], the IC50 was 1000 to 100000 nM.
`Cn1nc(OCC(F)F)cc1C(=O)Nc1cc([C@@H]2C[C@H](OC(=O)NC34CC(C3)C4)CO2)[nH]n1` [Example 907] gave an IC50 of no more than 100 nM.
Work on `CNS(=O)(=O)N[C@@H]1CC[C@H](c2cc(NC(=O)Cc3cc(C)no3)n[nH]2)C1` (single isomer, unassigned) [Example 145] yielded an IC50 of 1000 to 100000 nM.
For `Cc1cc(CC(=O)Nc2cc([C@H]3C[C@H](COc4nnccc4C(C)C)C3)[nH]n2)on1` [Example 432], the IC50 was 100 to 250 nM.
Molecule `Cc1cnnc(Nc2cc(C3CCCC3)[nH]n2)c1C(=O)O` [Example 856] has an IC50 of 1000 to 100000 nM.
For `COCc1cc(C(=O)Nc2cc([C@@H]3CC[C@H](Oc4nccnc4C)C3)[nH]n2)n(C)n1` (single isomer, unassigned) [Example 495], the IC50 was 250 to 1000 nM.
Work on `CC(C)c1ccnnc1O[C@@H]1CO[C@H](c2cc(Nc3nccc4ncsc34)n[nH]2)C1` [Example 524] yielded an IC50 of no more than 100 nM.
`COCc1cc2c(Nc3cc([C@H]4C[C@@H](Oc5nnccc5C(C)C)CO4)[nH]n3)nccn2n1` [Example 496] showed an IC50 of no more than 100 nM.
`C[C@H](NC(=O)O[C@H]1CO[C@@H](c2cc(NC(=O)c3cc(OCC(F)(F)F)nn3C)n[nH]2)C1)C1CC1` [Example 918] was tested, and the IC50 was no more than 100 nM.
`CC(C)n1cnnc1O[C@H]1CO[C@@H](c2cc(NC(=O)c3cc(COC(F)(F)F)nn3C)n[nH]2)C1` [Example 699] showed an IC50 of no more than 100 nM.
`Cc1cc(CC(=O)Nc2cc([C@@H]3CC[C@H](Oc4cncnc4)C3)[nH]n2)on1` (single isomer, unassigned) [Example 363] showed an IC50 of 250 to 1000 nM.
Work on `COCc1cc(C(=O)Nc2ncc([C@H]3C[C@@H](OC(=O)NC4(C)CC4)CO3)s2)n(C)n1` (single isomer, unassigned) [Example 905] yielded an IC50 of no more than 100 nM.
